Laboratory results taken from patent publication US20230257396A1, “MACROCYCLES AND THEIR USE” (BLOSSOMHILL THERAPEUTICS, INC., priority 2020, published 2023).

Tests used:
Experiment in all cases: KINOMEscan kinase binding assay (Eurofins/DiscoveRx), % Ctrl
Details in all cases: 1 μM
kinases [1] = target: T1, kinases (Homo sapiens, UniProt P00519, F317L)
T1 construct: purchased Eurofins/DiscoveRx; host or cells: E. coli BL21-derived host (T7 phage display) for most kinases; HEK-293 for the rest
How it was run: (§1)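 Read-out is qPCR of kinase eluted from ligand-coated streptavidin beads after 1 h room-temperature competition with test compound. Values are % Ctrl at the tested concentration, lower meaning tighter binding.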

kinases [2] = target: T2, kinases (Homo sapiens, UniProt P09619)
T2 construct: purchased Eurofins/DiscoveRx; host or cells: E. coli BL21-derived host (T7 phage display) for most kinases; HEK-293 for the rest
T2 sequence (P09619 33-1106): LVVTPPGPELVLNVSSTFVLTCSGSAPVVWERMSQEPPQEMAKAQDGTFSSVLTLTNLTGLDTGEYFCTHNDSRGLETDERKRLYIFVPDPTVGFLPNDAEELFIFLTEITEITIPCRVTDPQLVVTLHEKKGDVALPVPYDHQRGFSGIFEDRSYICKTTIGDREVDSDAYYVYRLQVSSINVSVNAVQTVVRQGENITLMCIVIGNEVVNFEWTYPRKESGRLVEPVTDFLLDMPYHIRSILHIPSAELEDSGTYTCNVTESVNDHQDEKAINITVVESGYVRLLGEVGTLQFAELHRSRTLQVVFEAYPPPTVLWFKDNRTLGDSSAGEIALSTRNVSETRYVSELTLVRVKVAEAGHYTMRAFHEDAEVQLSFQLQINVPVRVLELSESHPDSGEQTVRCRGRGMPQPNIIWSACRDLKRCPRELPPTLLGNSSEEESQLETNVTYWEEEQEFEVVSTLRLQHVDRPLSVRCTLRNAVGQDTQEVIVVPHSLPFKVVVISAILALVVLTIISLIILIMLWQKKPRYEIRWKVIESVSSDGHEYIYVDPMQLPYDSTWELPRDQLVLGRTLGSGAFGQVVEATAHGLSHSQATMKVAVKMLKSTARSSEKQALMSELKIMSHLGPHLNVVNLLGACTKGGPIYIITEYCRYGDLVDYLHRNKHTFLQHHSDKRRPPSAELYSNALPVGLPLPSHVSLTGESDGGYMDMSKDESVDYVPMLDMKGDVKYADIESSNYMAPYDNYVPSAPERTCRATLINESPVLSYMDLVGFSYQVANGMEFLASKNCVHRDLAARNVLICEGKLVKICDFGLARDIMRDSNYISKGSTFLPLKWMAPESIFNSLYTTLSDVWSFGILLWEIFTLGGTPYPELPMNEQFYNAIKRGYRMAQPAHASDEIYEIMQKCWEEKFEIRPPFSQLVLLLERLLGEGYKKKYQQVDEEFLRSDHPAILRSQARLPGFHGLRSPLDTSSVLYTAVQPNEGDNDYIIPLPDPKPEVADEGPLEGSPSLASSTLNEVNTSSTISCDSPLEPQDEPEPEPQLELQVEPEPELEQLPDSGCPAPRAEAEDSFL
How it was run: as §1

kinases [3] = target: T3, kinases (Homo sapiens, UniProt P10721)
T3 construct: purchased Eurofins/DiscoveRx; host or cells: E. coli BL21-derived host (T7 phage display) for most kinases; HEK-293 for the rest
T3 sequence (P10721 26-976): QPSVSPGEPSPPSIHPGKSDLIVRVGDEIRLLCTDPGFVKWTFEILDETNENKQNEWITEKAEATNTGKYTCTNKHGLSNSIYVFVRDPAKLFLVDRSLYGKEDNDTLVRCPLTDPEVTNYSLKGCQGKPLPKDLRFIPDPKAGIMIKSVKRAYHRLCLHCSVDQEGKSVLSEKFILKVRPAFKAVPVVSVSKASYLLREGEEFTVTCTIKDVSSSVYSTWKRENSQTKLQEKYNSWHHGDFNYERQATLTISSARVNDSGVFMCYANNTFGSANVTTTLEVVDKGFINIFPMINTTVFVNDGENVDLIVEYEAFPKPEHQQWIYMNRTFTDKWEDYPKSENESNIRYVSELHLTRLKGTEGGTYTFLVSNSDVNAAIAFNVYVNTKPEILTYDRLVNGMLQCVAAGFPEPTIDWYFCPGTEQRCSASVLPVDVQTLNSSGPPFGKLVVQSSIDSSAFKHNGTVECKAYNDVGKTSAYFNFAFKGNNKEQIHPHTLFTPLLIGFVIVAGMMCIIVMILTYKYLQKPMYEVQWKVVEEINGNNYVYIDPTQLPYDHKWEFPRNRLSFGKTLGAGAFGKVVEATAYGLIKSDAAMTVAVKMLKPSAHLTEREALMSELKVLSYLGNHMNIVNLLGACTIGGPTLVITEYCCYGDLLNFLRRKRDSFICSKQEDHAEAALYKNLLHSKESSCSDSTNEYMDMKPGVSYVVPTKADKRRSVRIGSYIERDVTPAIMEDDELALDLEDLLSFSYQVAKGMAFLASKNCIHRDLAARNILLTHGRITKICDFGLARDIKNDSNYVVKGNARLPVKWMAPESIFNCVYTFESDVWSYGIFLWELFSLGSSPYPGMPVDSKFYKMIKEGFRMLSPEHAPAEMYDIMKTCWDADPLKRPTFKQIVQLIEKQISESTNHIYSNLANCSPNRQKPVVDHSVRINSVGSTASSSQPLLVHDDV
How it was run: as §1

kinases [4] = target: T4, kinases (Homo sapiens, UniProt P10721, V559D/V654A)
T4 construct: purchased Eurofins/DiscoveRx; host or cells: E. coli BL21-derived host (T7 phage display) for most kinases; HEK-293 for the rest
T4 sequence (P10721 26-976 V559D/V654A): as the sequence (P10721 26-976) above, with V534D, V629A counted along it
How it was run: as §1

kinases [5] = target: T5, kinases (Homo sapiens, UniProt P36888, D835V)
T5 construct: purchased Eurofins/DiscoveRx; host or cells: E. coli BL21-derived host (T7 phage display) for most kinases; HEK-293 for the rest
T5 sequence (P36888 27-993 D835V): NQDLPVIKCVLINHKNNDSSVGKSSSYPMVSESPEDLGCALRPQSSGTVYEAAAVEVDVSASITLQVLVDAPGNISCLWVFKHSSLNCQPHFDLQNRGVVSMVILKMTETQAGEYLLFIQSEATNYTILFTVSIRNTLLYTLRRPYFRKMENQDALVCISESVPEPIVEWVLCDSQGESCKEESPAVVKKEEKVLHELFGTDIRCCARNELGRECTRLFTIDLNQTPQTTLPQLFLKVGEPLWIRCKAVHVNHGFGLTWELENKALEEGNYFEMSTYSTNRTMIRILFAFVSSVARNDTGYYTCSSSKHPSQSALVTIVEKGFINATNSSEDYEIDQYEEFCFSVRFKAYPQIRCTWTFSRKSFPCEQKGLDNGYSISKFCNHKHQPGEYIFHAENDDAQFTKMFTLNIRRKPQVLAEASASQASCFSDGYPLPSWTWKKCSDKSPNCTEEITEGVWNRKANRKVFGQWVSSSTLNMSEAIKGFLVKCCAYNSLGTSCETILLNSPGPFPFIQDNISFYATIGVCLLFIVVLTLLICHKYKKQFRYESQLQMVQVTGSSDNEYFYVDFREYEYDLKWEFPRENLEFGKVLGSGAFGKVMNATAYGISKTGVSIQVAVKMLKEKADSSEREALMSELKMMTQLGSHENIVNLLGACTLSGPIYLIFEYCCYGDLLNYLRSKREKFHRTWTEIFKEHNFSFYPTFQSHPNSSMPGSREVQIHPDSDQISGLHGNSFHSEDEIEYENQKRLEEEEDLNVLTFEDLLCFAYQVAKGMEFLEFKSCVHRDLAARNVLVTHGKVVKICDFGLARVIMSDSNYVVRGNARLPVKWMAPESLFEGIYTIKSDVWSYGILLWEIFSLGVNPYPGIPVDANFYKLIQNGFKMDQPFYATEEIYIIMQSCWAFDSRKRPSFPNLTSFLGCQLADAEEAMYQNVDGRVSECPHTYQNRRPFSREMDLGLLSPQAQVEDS
How it was run: as §1

T1 sequence (P00519 whole entry F317L): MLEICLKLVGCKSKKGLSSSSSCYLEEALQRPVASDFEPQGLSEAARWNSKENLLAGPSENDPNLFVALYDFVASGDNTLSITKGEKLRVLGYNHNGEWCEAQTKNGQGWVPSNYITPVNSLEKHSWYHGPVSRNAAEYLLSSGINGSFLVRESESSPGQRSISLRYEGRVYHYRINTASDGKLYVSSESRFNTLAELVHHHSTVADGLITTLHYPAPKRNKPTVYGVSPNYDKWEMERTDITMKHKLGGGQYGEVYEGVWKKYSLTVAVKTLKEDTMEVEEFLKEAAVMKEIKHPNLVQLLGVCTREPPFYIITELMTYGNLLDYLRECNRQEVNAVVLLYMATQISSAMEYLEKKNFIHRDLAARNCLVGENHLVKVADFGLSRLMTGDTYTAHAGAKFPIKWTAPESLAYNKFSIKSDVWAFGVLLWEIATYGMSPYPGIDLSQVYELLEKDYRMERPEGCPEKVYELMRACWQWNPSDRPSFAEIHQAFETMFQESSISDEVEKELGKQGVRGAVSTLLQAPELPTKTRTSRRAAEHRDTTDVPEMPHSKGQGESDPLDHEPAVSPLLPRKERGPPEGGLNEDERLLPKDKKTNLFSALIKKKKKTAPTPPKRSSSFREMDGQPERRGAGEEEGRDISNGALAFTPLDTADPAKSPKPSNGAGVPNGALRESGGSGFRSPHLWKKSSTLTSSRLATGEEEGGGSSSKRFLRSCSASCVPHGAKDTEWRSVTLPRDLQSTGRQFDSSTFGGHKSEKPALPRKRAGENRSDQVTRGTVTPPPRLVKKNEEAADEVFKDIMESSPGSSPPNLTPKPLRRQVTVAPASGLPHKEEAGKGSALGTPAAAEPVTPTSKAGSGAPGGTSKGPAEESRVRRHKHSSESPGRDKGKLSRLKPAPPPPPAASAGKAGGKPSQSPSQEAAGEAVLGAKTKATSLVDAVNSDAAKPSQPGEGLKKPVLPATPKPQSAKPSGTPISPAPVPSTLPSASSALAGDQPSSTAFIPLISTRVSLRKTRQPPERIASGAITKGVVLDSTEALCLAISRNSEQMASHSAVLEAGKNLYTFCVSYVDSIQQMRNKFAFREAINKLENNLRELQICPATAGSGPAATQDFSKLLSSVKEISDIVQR

| SMILES | % Ctrl, ABL1(F317L)-nonphosphorylated (kinases [1]; ABL1(F317L)-nonphosphorylated) | % Ctrl, ABL1(F317L)-phosphorylated (kinases [1]; ABL1(F317L)-phosphorylated) | % Ctrl, PDGFRB (kinases [2]; PDGFRB) | % Ctrl, KIT (kinases [3]; KIT) | % Ctrl, KIT-autoinhibited (kinases [3]; KIT-autoinhibited) | % Ctrl, KIT(V559D, V654A) (kinases [4]; KIT(V559D, V654A)) | % Ctrl, FLT3(D835V) (kinases [5]; FLT3(D835V)) | % Ctrl, ABL1(F317L)-nonphosphorylated (kinases [1]; target ABL1(F317L)-nonphosphorylated) | % Ctrl, ABL1(F317L)-phosphorylated (kinases [1]; target ABL1(F317L)-phosphorylated) | % Ctrl, PDGFRB (kinases [2]; target PDGFRB) | % Ctrl, KIT-autoinhibited (kinases [3]; target KIT-autoinhibited) | % Ctrl, KIT (kinases [3]; target KIT) | % Ctrl, KIT(V559D, V654A) (kinases [4]; target KIT(V559D, V654A)) | % Ctrl, FLT3(D835V) (kinases [5]; target FLT3(D835V)) |
| --- | --- | --- | --- | --- | --- | --- | --- | --- | --- | --- | --- | --- | --- | --- |
| Cc1cc2c([nH]1)/C=C1\C(=O)Nc3cnc(cc31)-c1cnn(C)c1COCCNC2=O [Ex.123, [3a(4)Z]-6,14-dimethyl-10,11,13,14-tetrahydro-2H-17,1-(azenometheno)pyrazolo[4,3-m]dipyrrolo[3,2-f:3′,4′-i][1,4]oxazacyclopentadecine-3,8(5H,9H)-dione] | 100 % Ctrl | 100 % Ctrl | 94 % Ctrl | 97 % Ctrl | 97 % Ctrl | 79 % Ctrl | 91 % Ctrl |  |  |  |  |  |  |  |
| Cc1cc2c([nH]1)/C=C1\C(=O)Nc3ccc(cc31)-c1ccnn1CCOCCN(C)C2=O [Ex. 41, [19a(20)Z]-2,5-dimethyl-6,7,9,10-tetrahydro-1H-15,17-(ethanediylidene)pyrazolo[1,5-d]dipyrrolo[3,4-h:2′,3′-k][1,4,14]oxadiazacyclohexadecine-4,19(5H,18H)-dione] | 26 % Ctrl | 53 % Ctrl | 5.5 % Ctrl | 58 % Ctrl | 78 % Ctrl | 93 % Ctrl | 0.25 % Ctrl |  |  |  |  |  |  |  |
| Cc1cc2c([nH]1)/C=C1\C(=O)Nc3ccc(cc31)-c1ccnn1CCNCCNC2=O [Ex. 43, [19a(20)Z]-2-methyl-5,6,7,8,9,10-hexahydro-15,17-(ethanediylidene)pyrazolo[1,5-g]dipyrrolo[3,4-k:2′,3′-n][1,4,7]triazacyclohexadecine-4,19(1H,18H)-dione] | 63 % Ctrl | 90 % Ctrl | 98 % Ctrl | 100 % Ctrl | 81 % Ctrl | 100 % Ctrl | 27 % Ctrl |  |  |  |  |  |  |  |
| Cc1cc2c([nH]1)/C=C1\C(=O)Nc3cnc(cc31)-c1cn[nH]c1CNCCN(C)C2=O [Ex. 55, [3a(4)Z]-6,9-dimethyl-9,10,11,12,13,14-hexahydro-17,1-(azenometheno)pyrazolo[4,3-m]dipyrrolo[3,2-f:3′,4′-i][1,4]diazacyclopentadecine-3,8(2,5H)-dione] |  |  |  |  |  |  |  | 24 % Ctrl | 10 % Ctrl | 10 % Ctrl | 39 % Ctrl | 74 % Ctrl | 22 % Ctrl | 1.1 % Ctrl |
| Cc1cc2c([nH]1)/C=C1\C(=O)Nc3ccc(cc31)O[C@@H](C)COCCN(C)C2=O [Ex. 92, [10S,16a(17)Z]-2,5,10-trimethyl-6,7,9,10-tetrahydro-1H-12,14-(ethanediylidene)dipyrrolo[3,2-i:3′,4′-l][1,4,7]dioxazacyclopentadecine-4,16(5H,15H)-dione] | 6.5 % Ctrl | 76 % Ctrl | 71 % Ctrl | 91 % Ctrl | 100 % Ctrl | 67 % Ctrl | 3.7 % Ctrl |  |  |  |  |  |  |  |
| Cc1cc2c([nH]1)/C=C1\C(=O)Nc3ccc(cc31)-c1cnn(C)c1COCCN(C)C2=O [Ex. 124, [3a(4)Z]-6,9,14-trimethyl-10,11,13,14-tetrahydro-2H-1,17-(ethanediylidene)pyrazolo[4,3-m]dipyrrolo[3,2-f:3′,4′-i][1,4]oxazacyclopentadecine-3,8(5H,9H)-dione] | 0 % Ctrl | 0.2 % Ctrl | 0.35 % Ctrl | 45 % Ctrl | 93 % Ctrl | 7.7 % Ctrl | 0 % Ctrl |  |  |  |  |  |  |  |
| Cc1cc2c([nH]1)/C=C1\C(=O)Nc3ccc(cc31)-c1cnn(C)c1CNCCN(C)C2=O [Ex. 125, [3a(4)Z]-6,9,14-trimethyl-9,10,11,12,13,14-hexahydro-1,17-(ethanediylidene)pyrazolo[4,3-m]dipyrrolo[3,2-f:3′,4′-i][1,4]diazacyclopentadecine-3,8(2H,5H)-dione] | 0 % Ctrl | 0.55 % Ctrl | 0.4 % Ctrl | 42 % Ctrl | 95 % Ctrl | 6.7 % Ctrl | 0.25 % Ctrl |  |  |  |  |  |  |  |
| Cc1cc2c([nH]1)/C=C1\C(=O)Nc3ccc(cc31)-c1cnn(C)c1CN(C)CCN(C)C2=O [Ex. 126, [3a(4)Z]-6,9,12,14-tetramethyl-9,10,11,12,13,14-hexahydro-1,17-(ethanediylidene)pyrazolo[4,3-m]dipyrrolo[3,2-f:3′,4′-i][1,4]diazacyclopentadecine-3,8(2H,5H)-dione] | 1.7 % Ctrl | 0 % Ctrl | 0 % Ctrl | 6.3 % Ctrl | 84 % Ctrl | 0.4 % Ctrl | 0 % Ctrl |  |  |  |  |  |  |  |
| Cc1cc2c([nH]1)/C=C1\C(=O)Nc3ccc(cc31)-c1c(C)n[nH]c1CNCCN(C)C2=O [Ex. 127, [3a(4)Z]-6,9,16-trimethyl-9,10,11,12,13,14-hexahydro-1,17-(ethanediylidene)pyrazolo[4,3-m]dipyrrolo[3,2-f:3′,4′-i][1,4]diazacyclopentadecine-3,8(2H,5H)-dione] | 4.1 % Ctrl | 0.8 % Ctrl | 28 % Ctrl | 89 % Ctrl | 80 % Ctrl | 89 % Ctrl | 0.15 % Ctrl |  |  |  |  |  |  |  |
| Cc1cc2c([nH]1)/C=C1\C(=O)Nc3ccc(cc31)-c1c(noc1C)COCCN(C)C2=O [Ex. 128, [3a(4)Z]-6,9,16-trimethyl-1,11-dihydro-2H,13H-1,17-(ethanediylidene)[1,4]oxazolo[4,3-m]dipyrrolo[3,2-f:3′,4′-i][1,4]oxazacyclopentadecine-3,8(5H,9H)-dione] | 85 % Ctrl | 58 % Ctrl | 85 % Ctrl | 98 % Ctrl | 97 % Ctrl | 100 % Ctrl | 1.7 % Ctrl |  |  |  |  |  |  |  |
